Experimental data from ChEMBL document CHEMBL5131395 (Eur J Med Chem, 2022).
Blank lines part the entries; values can stand above or below the molecule they belong to. The source made the active and inactive calls. No cut-off for these calls is given here.

Assays:
[1] = AUC (0 to infinity) in rat at 60 mg/kg, po by LC-MS/MS analysis; type: ADME, organism-based; parameters: time infinity, dose 60 mg/kg, route po; details: in vivo
[2] = Half life in rat at 60 mg/kg, po by LC-MS/MS analysis; type: ADME, organism-based; details: in vivo
[3] = Clearance in rat at 60 mg/kg, po by LC-MS/MS analysis; type: ADME, organism-based; details: in vivo
[4] = AUC (0 to t) in rat at 60 mg/kg, po by LC-MS/MS analysis; type: ADME, organism-based; parameters: dose 60 mg/kg, route po; details: in vivo
[5] = Tmax in rat at 60 mg/kg, po by LC-MS/MS analysis; type: ADME, organism-based; details: in vivo
[6] = Cmax in rat at 60 mg/kg, po by LC-MS/MS analysis; type: ADME, organism-based; parameters: dose 60 mg/kg, route po; details: in vivo
Autotaxin = Autotaxin (Homo sapiens, UniProt Q13822); test: Inhibition of human ATX using FS-3 as substrate preincubated for 45 mins followed by substrate addition measured every 1 min for 30 mins by fluorescence based microplate reader analysis
Mus musculus [7] = test: (§1) Antifibrotic activity against BLM induced C57BL/6J mouse lung fibrosis model assessed as improvement in lung architecture by measuring appearance of fibrotic lesions at 60 mg/kg, ip pretreated with compound administered once daily for 3 days followed by BLM treatment and measured after 28 days by Masson staining based microscopic analysis; type: functional, organism-based; details: time 31.0 day
[8] = Downregulation of IL-6 expression in lung tissue of BLM induced C57BL/6J mouse lung fibrosis model assessed as fold reduction in IL-6 expression level at 60 mg/kg, ip by qRT-PCR analysis; type: functional
Mus musculus [9] = test: as §1, with “of conterminous” for “of”, “walls” for “lesions”, “hematoxylin and eosin” for “Masson”; type: functional, organism-based; details: time 31.0 day
[10] = Downregulation of TNF-alpha expression in lung tissue of BLM induced C57BL/6J mouse lung fibrosis model assessed as fold reduction in TNF-alpha expression level at 60 mg/kg, ip by qRT-PCR analysis; type: functional
[11] = In vivo inhibition of ATX in lung homogenate of BLM induced C57BL/6J mouse lung fibrosis model assessed as reduction in ATX activity using FS-3 as substrate at 60 mg/kg, ip by fluorescence based microplate reader analysis (reference value: 7.78%); type: functional
[12] = Downregulation of TGF-beta expression in lung tissue of BLM induced C57BL/6J mouse lung fibrosis model assessed as fold reduction in TGF-beta expression level at 60 mg/kg, ip by qRT-PCR analysis; type: functional
Mus musculus [13] = test: as §1, with “of conterminous” for “of”, “walls” for “lesions”; type: functional, organism-based; details: time 31.0 day
Mus musculus [14] = test: as §1, with “hematoxylin and eosin” for “Masson”; type: functional, organism-based; details: time 31.0 day
Mus musculus [15] = test: Antifibrotic activity against BLM induced C57BL/6J mouse lung fibrosis model assessed as recovery of body weight at 60 mg/kg, ip pretreated with compound administered once daily for 3 days followed by BLM treatment and measured after 28 days; type: functional, organism-based; details: time 31.0 day
Mus musculus [16] = test: Antifibrotic activity against BLM induced C57BL/6J mouse lung fibrosis model assessed as recovery of body weight at 30 to 60 mg/kg, ip pretreated with compound administered once daily for 3 days followed by BLM treatment and measured after 28 days; type: functional, organism-based; details: dose 30-60 mg/kg, time 31.0 day
[17] = In vivo inhibition of ATX in BALF of BLM induced C57BL/6J mouse lung fibrosis model assessed as reduction in ATX activity using FS-3 as substrate at 30 to 60 mg/kg, ip by fluorescence based microplate reader analysis (reference value: 4.50%); type: functional, Bronchoalveolar lavage; details: dose 30-60 mg/kg
Mus musculus [18] = test: as §1, with “lesions at 30 to 60 mg/kg,” for “lesions at 60 mg/kg,”, “days by hematoxylin and eosin staining based” for “days by Masson staining based”; type: functional, organism-based; details: dose 30-60 mg/kg, time 31.0 day
[19] = Downregulation of IL-6 expression in lung tissue of BLM induced C57BL/6J mouse lung fibrosis model assessed as fold reduction in IL-6 expression level at 30 to 60 mg/kg, ip by qRT-PCR analysis; type: functional; details: dose 30-60 mg/kg
Mus musculus [20] = test: as §1, with “lesions at 30 to 60 mg/kg,” for “lesions at 60 mg/kg,”; type: functional, organism-based; details: dose 30-60 mg/kg, time 31.0 day
[21] = In vivo inhibition of ATX in lung homogenate of BLM induced C57BL/6J mouse lung fibrosis model assessed as reduction in ATX activity using FS-3 as substrate at 30 mg/kg, ip by fluorescence based microplate reader analysis (reference value: 7.78%); type: functional
Mus musculus [22] = test: (§2) Antifibrotic activity against BLM induced C57BL/6J mouse lung fibrosis model assessed as improvement in lung architecture by measuring appearance of conterminous fibrotic walls at 30 to 60 mg/kg, ip pretreated with compound administered once daily for 3 days followed by BLM treatment and measured after 28 days by Masson staining based microscopic analysis; type: functional, organism-based; details: dose 30-60 mg/kg, time 31.0 day
Mus musculus [23] = test: as §2, with “hematoxylin and eosin” for “Masson”; type: functional, organism-based; details: dose 30-60 mg/kg, time 31.0 day
[24] = Downregulation of TGF-beta expression in lung tissue of BLM induced C57BL/6J mouse lung fibrosis model assessed as fold reduction in TGF-beta expression level at 30 to 60 mg/kg, ip by qRT-PCR analysis; type: functional; details: dose 30-60 mg/kg
[25] = Downregulation of TNF-alpha expression in lung tissue of BLM induced C57BL/6J mouse lung fibrosis model assessed as fold reduction in TNF-alpha expression level at 30 to 60 mg/kg, ip by qRT-PCR analysis; type: functional; details: dose 30-60 mg/kg
[26] = Cytotoxicity against human HBE cells assessed as lethal dose; type: toxicity, cell-based; details: HBE cells (epithelial cell line), read-out: LD50 (the source's name)

AUC [1]: 240 ng·h/mL
half-life [2]: 2.56 h
CL/F [3]: 6.35 mL/min/kg
AUCt [4]: 240 ng·h/mL
Tmax [5]: 2.67 h
Cmax ([6]; read-out: Cmax): 50 ng/mL
Structure (SMILES): CCn1cc(NC(=O)OCc2cc(Cl)cc(Cl)c2)c2cc(-c3nc(CN4CCOCC4)cs3)ccc21

IC50 (Autotaxin): 0.03 µM
Structure (SMILES): CCn1cc(NC(=O)NCc2ccc(Cl)cc2)c2cc(-c3nc(CN(CCO)CCO)cs3)ccc21

Structure (SMILES): CCc1nc2c(C)cc(N3CCN(CC(=O)N4CC(O)C4)CC3)cn2c1N(C)c1nc(-c2ccc(F)cc2)c(C#N)s1 [ZIRITAXESTAT]
Activity (Mus musculus [7]): Active
fold change (FC) [8]: 2
Activity (Mus musculus [9]): Active
fold change (FC) [10]: 2
inhibition in vivo at 60 mg/kg [11]: 5.54%
fold change (FC) [12]: 2
Activity (Mus musculus [13]): Active
Activity (Mus musculus [14]): Active
Activity (Mus musculus [15]): Active

Structure (SMILES): CCn1cc(NC(=O)NCc2ccc(OC)c(Cl)c2)c2cc(-c3nc(CN(CCO)CCO)cs3)ccc21
AUC [1]: 680 ng·h/mL
Activity (Mus musculus [16]): Active
half-life [2]: 3.11 h
IC50 (Autotaxin): 0.00217 µM
AUC(0-t) [4]: 670 ng·h/mL
inhibition (INH) [17]: 3.23%
Activity (Mus musculus [18]): Active
fold change (FC) [19]: 2
Tmax [5]: 3.91 h
Activity (Mus musculus [20]): Active
inhibition in vivo at 60 mg/kg [11]: 5.03%
inhibition in vivo at 30 mg/kg [21]: 5.59%
Cmax [6]: 131 ng/mL
Activity (Mus musculus [22]): Active
Activity (Mus musculus [23]): Active
fold change (FC) [24]: 2
fold change (FC) [25]: 2
CC50 [26]: > 20 µM
